Reference: paper PMC12234328, “A naphthalimide derivative exerts potent antiplatelet and antithrombotic activities without a bleeding tendency” (Frontiers in Pharmacology, 2025)

Key:
[1] = tested on: human platelet suspensions stimulated with thrombin; test: Thrombin-induced platelet aggregation; format: cell-based; conditions: 5–50 μM, 0.02 U/mL thrombin
Excerpt: (§1) This study received approval from the Taipei Medical University–Joint Institutional Review Board (TMU-JIRB-No. N202003148) and adhered to the principles of the Declaration of Helsinki. Informed consent was obtained from all volunteers before their participation. Human platelets were washed and prepared according to previously established methods ([Lu et al., 2019]). Whole blood was collected from healthy participants who had not taken any medications, including nonsteroidal anti-inflammatory drugs or aspirin, in the preceding 2 weeks. The blood was drawn into polypropylene tubes containing an acid citrate–dextrose solution (9:1, v/v). After mixing, the samples were centrifuged at 120 g for 10 min. The upper layer of platelet-rich plasma was collected and supplemented with prostaglandin E1 and heparin. Following further centrifugation at 500 g for 10 min, the platelet pellets were washed twice. The platelets were then resuspended in Tyrode’s solution containing 3.5 mg/mL bovine serum albumin (B.S.A.) to create platelet suspensions. The final Ca^2+ concentration of the platelet suspensions (3.6 × 10^8 cells/mL) was 1 mM.
(§2) Platelet aggregation was measured using a lumi-aggregometer (Payton, Scarborough, Canada) through the turbidimetric method ([Lu et al., 2019]). […] Subsequently, various agonists were added and platelet aggregation was then recorded for an additional 6 min. […]

[2] = tested on: human platelet suspensions stimulated with U46619; test: U46619-induced platelet aggregation; format: cell-based; conditions: 5–50 μM, 1 μM U46619
Excerpt: as §1, §2

recombinant human GPVI = target: T1, recombinant human GPVI (Homo sapiens, UniProt Q9HCN6); test: Surface plasmon resonance binding assay (OpenSPR); conditions: his-tagged recombinant GPVI on NTA chip, compound at 0.1 and 1 μM; read-out: KD (equilibrium dissociation constant)
T1 sequence (Q9HCN6 21-267 limits assumed): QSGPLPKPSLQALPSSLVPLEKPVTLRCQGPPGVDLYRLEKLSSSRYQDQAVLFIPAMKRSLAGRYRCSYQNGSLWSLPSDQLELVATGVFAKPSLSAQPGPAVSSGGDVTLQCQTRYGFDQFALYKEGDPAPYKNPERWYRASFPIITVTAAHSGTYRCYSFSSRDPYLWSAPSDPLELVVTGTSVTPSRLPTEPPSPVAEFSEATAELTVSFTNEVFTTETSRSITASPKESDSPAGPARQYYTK
Description: Surface plasmon resonance (SPR) analysis was performed using an OpenSPR instrument (Nicoya, Kitchener, Canada). A nitrilotriacetic acid (NTA) sensor chip was installed in the OpenSPR instrument. Running buffer (phosphate-buffered saline) was pumped at the maximum flow rate, and 80% isopropanol was injected to remove any bubbles. Subsequently, 200 μL of a 200 mM imidazole solution was injected to prime the sensor surface. After rinsing the chip with running buffer, 200 μL of a 40 mM NiCl2 solution was used to activate the NTA chip. After 5 min of interaction time, his-tagged recombinant GPVI proteins were bound to the NTA chip by perfusing the GPVI protein solution at a flow rate of 20 μL/min. Solutions of compound 5 or compound 6 (0.1 and 1 μM) were then injected. The equilibrium dissociation constant (KD) was determined using the OpenSPR system (Nicoya).
An SPR binding assay was performed. First, recombinant human GPVI was coated on the NTA sensor chip. Solutions of compound 5 and compound 6 (0.1 and 1 μM) were then perfused on the chip, and the KD was determined using the OpenSPR system (Nicoya Lifesciences).
FIGURE 7 Direct binding of compound 6 on GPVI. […] Equilibrium dissociation constant (KD) were determined using the OpenSPR system. […]

[3] = tested on: collagen-triggered ATP release in human platelets; test: ATP release in human platelet suspensions (luciferase/luciferin); format: cell-based; conditions: 2.5 and 5 μM, collagen 1 μg/mL, n = 4
Description: Adenosine triphosphate (ATP) release and calcium mobilization were assessed as previously described ([Shih et al., 2021]). Luciferase–luciferin and Fura-2 AM were used to detect ATP release and calcium mobilization, respectively. The intensity of luminescence (indicating ATP release) and the fluorescence ratio (340 nm/380 nm) for calcium mobilization were measured using a Hitachi Spectrometer F-7000 (Tokyo, Japan) following the manufacturer’s instructions.
FIGURE 8 Effects of compound 6 on ATP release, calcium mobilization, and GPIIb–IIIa activation triggered by collagen in human platelets. Washed platelets (3.6 × 10^8 cells/mL) were treated with compound 6 (C6, 2.5 and 5 μM) or DMSO and then stimulated with collagen (1 μg/mL) to trigger ATP release (A), calcium mobilization (B), and GPIIb–IIIa activation (C) that were detected using luciferase/luciferin, Fura-2 AM, and APC–PAC1 antibodies, respectively. Data (A–C) are presented as means ± SEM (n = 4). **p < 0.01 and ***p < 0.001 compared with the resting group. #p < 0.05, ##p < 0.01, and ###p < 0.001 compared with the DMSO (solvent control) group.

CCCCN1C(=O)c2cccc3c(NCCNC(=O)C45CC6CC(CC(C6)C4)C5)ccc(c23)C1=O [compound 6]
Effect on thrombin-induced platelet aggregation [1]: did not significantly affect
Effect on U46619-induced platelet aggregation [2]: did not significantly affect
Kd (recombinant human GPVI): 0.16 µM
Collagen-triggered ATP release [3]: markedly reduced
